One assay relates to SARS-CoV. Conditions: read-out: EC50 (SARS-CoV); cited from earlier work.
For assay [1], the system named is HCV subgenomic replicon RNA. The assay is described as follows: real-time RT-PCR quantification of replicon RNA. Conditions: two-day incubation. The class given is cell-based, hepatitis C virus (HCV).

Results on three compounds are retold here after PMC7125560 (Bioorganic & Medicinal Chemistry, 2007).

Regarding `O=C(OC[C@H]1C[C@@H](n2cnc3c(Cl)ncnc32)[C@@H]1CO)c1ccccc1` [Compound 5], in the assay on SARS-CoV, the EC50 is 14.5 µM.

As to `OC[C@H]1C[C@@H](n2cnc3c(Cl)ncnc32)[C@@H]1CO` [Compound 6], in the assay on SARS-CoV, the EC50 was over 300 µM.

Consider `O=C(OC[C@H]1O[C@@H](n2cnc3c(Cl)ncnc32)C[C@@H]1O)c1ccccc1` [Compound 10, 9-(5-O-benzoyl-β-D-2-deoxyribofuranosyl)-6-chloropurine], for which the “replicon RNA amount” value was “approximately 45%” in assay [1] (12.5 μM) and about 6% in assay [1] (25 μM).
